Values joined by “and” are separate entries in the source; they are usually repeats but may differ in a detail not shown here. Equal entries are not always repeated.
Tests used:
[1] = biological target: T1, Protein farnesyltransferase (Homo sapiens) (UniProt P49354+P49356); assay: Percent inhibition of [3H]FPP incorporation into H-ras CVLS by farnesyltransferase at 0.4 uM; format: protein-complex assay
[2] = biological target: T1, Protein farnesyltransferase (Homo sapiens); assay: Percent inhibition of [3H]FPP incorporation into H-ras CVLS by farnesyltransferase at 1.1 uM; format: protein-complex assay
[3] = biological target: T1, Protein farnesyltransferase (Homo sapiens); assay: Inhibition of [3H]FPP incorporation into H-ras CVLS by farnesyltransferase; format: protein-complex assay
[4] = Inhibition of [3H]-FPP incorporation into H-ras CVLS by farnesyltransferase

| inhibition [2] | SMILES | IC50 [4] | other results |
| --- | --- | --- | --- |
| – | O=C(NCc1cccnc1)[C@H]1CCCCN1C1c2ccc(Cl)cc2CCc2cc(Br)cnc21 (stereo partly specified) | – | inhibition [1]: 0.4% and 11% |
| 0% and 13% | O=C(NCc1ccncc1)[C@@H]1CCCCN1C1c2ccc(Cl)cc2CCc2cc(Br)cnc21 (stereo partly specified) | – | – |
| 18% and 27% | O=C(NCc1ccncc1)[C@H]1CCCCN1C1c2ccc(Cl)cc2CCc2cc(Br)cnc21 (stereo partly specified) | – | – |
| – | O=C(NCc1cccnc1)[C@@H]1CCCCN1C1c2ccc(Cl)cc2CCc2cc(Br)cnc21 (stereo partly specified) | – | Inhibitory activity [3]: 0.3 µM and 0.16 µM |
| – | O=C(NCCCn1ccnc1)[C@@H]1CCCCN1C1c2ncc(Br)cc2CCc2cc(Cl)cc(Br)c21 (stereo partly specified) | 0.9 nM and 0.4 nM | – |
| – | NC(=O)N1CCC(CC(=O)N2CCC([C@H]3c4ncc(Br)cc4CCc4cc(Cl)cc(Br)c43)CC2)CC1 [LONAFARNIB] | 2 nM | – |
